Test results reported in patent publication US20240165209A1, “PLACENTAL ALKALINE PHOSPHATASE FOR REDUCING THE LOSS OF RED BLOOD CELLS, WHITE BLOOD CELLS, AND PLATELETS IN CHEMOTHERAPY TREATED CANCER PATIENTS” (ZOLTAN LABORATORIES, LLC, priority 2021, published 2024).

Legend:
[1] = system: mouse bone marrow-derived hematopoietic stem cells (HSCs); conditions: 200 μM Cyp, 3 days, absence of PLAP
Description: Bone marrow was harvested by flushing bones from female C57/BL/6 mice in Fischer medium (Thermo Fisher Scientific; catalogue no. 21475025) containing 20% horse serum (Hyclone, Logan, UT), 100 Unit/ml penicillin, […] streptomycin (Gibco, BRL), 0.015 fungizone (Gibco, BRL), and 0.1 μM hydrocortisone sodium succinate (SynoPharm; Hamburg, Germany). Pooled stem cells were seeded into 25 cm 3 flasks (10 ml cell suspension) and after 3 days of incubation at 33° C. in 5% CO2 in air in the absence of PLAP, they were plated into 12-well plates and were incubated in the absence (n=8) or presence of 50 μg/ml PLAP (n=8) for additional 3 days.
In a follow up experiment with hematopoietic stem cells, the same incubation medium in 12-well plates contained either no other addition (n=8) or contained 200 μM Cyp without (n=8) or with 50 μg/ml PLAP (n=8) for 3 days.

[2] = system: blood cells (RBCs, WBCs, platelets) of T47D tumor bearing mice; assay: Experiment 1: blood cell counts in Cyp-treated T47D tumor bearing mice, last sample day 9; format: in vivo, mouse; conditions: Cyp 120 mg/kg i.p. daily x6, PLAP 7.5 mg/kg s.c. days 0, 3, 6
Description: (§1) In the two experiments performed, first-generation hybrid BDF1 (C57BL/6 female×DBA/2 male) 10 weeks old adult female mice bearing T47D tumors (2.6-3.3 cm 3 volume) were used.
In the first group, mice received no treatment. In the second and third groups, mice were administered 120 mg/kg of cyclophosphamide (Cyp) intraperitoneally once a day for 6 consecutive days administered between 10-10.30 AM. In a third group, mice were also administered 7.5 mg/kg of PLAP subcutaneously on days 0, 3 and 6 between 9-9.30 AM. In each group, mice were kept on standard diet (˜15% fat, 65% carbohydrate, and 20% proteins) purchased from Charles River VRFI. Both PLAP (for the 3rd group) and Cyp were dissolved in physiological (0.9%) saline and injected in 50 μl volume. […] The data shown is the average of 6 independent determinations ±S.D.

[3] = system: nucleated bone marrow cells (BM); assay: Nucleated bone marrow (BM) cells per femur in Cyp treated T47D tumor bearing mice; format: in vivo, mouse; conditions: Cyp 120 mg/kg i.p. daily x6, PLAP 7.5 mg/kg s.c. days 0, 2, 4, 6
Description: Again, first-generation hybrid BDF1 (C57BL/6 female×DBA/2 male) 10 weeks old adult female mice bearing T47D tumors (2.6-3.3 cm^3) were used. In the first group, mice received no treatment. In the second and third groups, mice were administered 120 mg/kg of Cyp intraperitoneally once a day for 6 consecutive days. In a third group, mice were also administered 7.5 mg/kg of PALP subcutaneously on days 0, 2, 4 and 6. On the days indicated in TABLE 4, the animals were killed, then the bone marrow was flushed from the femurs with Iscove's modified Dulbecco's medium (Gibco BRL, Gaithersburg, MD, USA). This was followed by standard erythrocyte lysis and then by counting the number of nucleated bone marrow (BM) cells per femur using a hemocytometer.

[4] = system: blood cells (RBCs, WBCs, platelets) of T47D tumor bearing mice; assay: Experiment 2: blood cell counts in Cyp-treated T47D tumor bearing mice, last sample day 10; format: in vivo, mouse; conditions: Cyp 120 mg/kg, PLAP 7.5 mg/kg days 0, 2, 4, 6
Description: as §1
The second experiment was performed with T47D tumor bearing mice similarly to the one described to TABLE 2, except that one group of Cyp (120 mg/kg) treated mice were co-treated treated with PLAP (7.5 mg/kg) on days 0, 2, 4, and 6. […] The data shown is the average of 6 independent determinations±S.D.

[5] = system: bone marrow MSCs; assay: DNA synthesis ([3H]thymidine incorporation) in MSCs; format: cell-based, human; conditions: 20 hours, no PLAP
Text: For the experiment, bone marrow aspirates were taken from normal human adult donors after informed consent. For the preparation of bone marrow MSCs, essentially a widely used technique was used as described earlier by others [Pittenger, M. F., Mackay, A. M., Beck, S. C., et al. (1999) Multilineage potential of adult human mesenchymal stem cells. Science 284, 143-147]. Briefly, nucleated cells were isolated with a pre-prepared commercial density gradient (Lymphoprep, Nycomed, Pharma, Oslo, Norway) and re-suspended in Dulbecco's modified Eagle's medium (DMEM) (GIBCO, Grand Island, NY) supplemented with 10% fetal calf serum (FCS), 50 U/ml of penicillin, and 50 μg/ml of streptomycin (GIBCO). All nucleated cells were plated in 25-cm^2 flasks (BD Falcon, Bedford, MA) at 37° C. in humidified atmosphere containing 5% CO2. After 24 hours, non-adherent cells were removed and cryopreserved in liquid nitrogen until use. The remaining adherent cells were thoroughly washed with Hanks balanced salt solution (HBSS) (GIBCO). Fresh complete culture medium was added and replaced every 3 or 4 days (twice a week). When cells grew to about 80% confluence, they were suspended and harvested by incubating with a ready-made solution containing 0.25% trypsin and 1 mM EDTA (Sigma-Aldrich, St. Louis, MO) for 5 minutes at 37° C.; this cell suspension is designated as passage 1. These cells were further expanded with 1:3-1:5 splitting in 175-cm^2 flasks (BD Falcon). For the determination of DNA synthesis, cells were divided into 12-well plates in the complete medium and let the cells grow to about 60% confluence. After changing the spent medium for fresh complete medium (i.e., containing 10% fetal calf serum), cells were treated for 20 hours with 20-100 μM ATP and/or 200 nM PLAP as well as 50-200 μM Cyp in the absence or presence of 200 nM PLAP. For labeling newly formed DNA, cells received 1,130,000 d.p.m. [^3H] thymidine for the last 4 hours of the treatment period. DNA synthesis was determined as described earlier [She, Q.-B., Mukherjee, J. J., Huang, J.-S., Crilly, K. S. and Kiss, Z. (2000) Growth factor-like effects of placental alkaline phosphatase in human fetus and mouse embryo fibroblasts. FEBS Lett. 469, 163-167]. The data is expressed as d.p.m. [^3H] thymidine incorporated into DNA/well (n=3).

## O.O=P1(N(CCCl)CCCl)NCCCO1 (stereo not shown) [Cyp, 2-[Bis (2-chloroethyl)amino] tetrahydro-2H-1,3,2-oxazaphosphorine 2-oxide monohydrate]
[1]
  decrease of the number of cells by Cyp: 52%
[2]; day 0
  Platelets: 1,114 ± 111 ×10^−3/μl
  RBCs: 9.51 ± 1.09 ×10^−6/μl
  WBCs: 7.92 ± 0.72 ×10^−3/μl
[2]; day 3
  Platelets: 704 ± 98 ×10^−3/μl
  RBCs: 7.28 ± 1.29 ×10^−6/μl
  WBCs: 4.22 ± 0.85 ×10^−3/μl
[2]; day 6
  Platelets: 404 ± 139 ×10^−3/μl
  RBCs: 4.94 ± 0.63 ×10^−6/μl
  WBCs: 2.73 ± 0.53 ×10^−3/μl
[2]; day 9
  Platelets: 687 ± 114 ×10^−3/μl
  RBCs: 6.26 ± 0.71 ×10^−6/μl
  WBCs: 5.72 ± 0.49 ×10^−3/μl
[3]; day 0
  Nucleated BM cells/femur: 14.11 ± 1.50 ×10^6
[3]; day 3
  Nucleated BM cells/femur: 9.32 ± 2.32 ×10^6
[3]; day 6
  Nucleated BM cells/femur: 3.10 ± 2.26 ×10^6
[3]; day 9
  Nucleated BM cells/femur: 4.90 ± 2.17 ×10^6
[4]; day 0
  Platelets: 1,185 ± 101^ ×10^−3/μl
  RBCs: 9.51 ± 0.70 ×10^−6/μl
  WBCs: 8.86 ± 0.61 ×10^−3/μl
[4]; day 6
  Platelets: 372 ± 57 ×10^−3/μl
  RBCs: 4.83 ± 0.62 ×10^−6/μl
  WBCs: 2.79 ± 0.47 ×10^−3/μl
[4]; day 10
  Platelets: 746 ± 92 ×10^−3/μl
  RBCs: 6.88 ± 0.61 ×10^−6/μl
  WBCs: 6.15 ± 0.45 ×10^−3/μl
[5]; Cyp 50 μM
  d.p.m. [^3H] thymidine incorporated into DNA/well: 51,684 ± 2.772 d.p.m.
[5]; Cyp 200 μM
  d.p.m. [^3H] thymidine incorporated into DNA/well: 32,536 ± 3,280 d.p.m.
